Results taken from PubChem BioAssay (NCI).
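Grown in 96-well plates, cells were treated for 48 hours with each compound at five concentrations. Insufficient inhibition: endpoint recorded as highest concentration tested. TGI marks complete inhibition of growth.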

Experiments:
Assay in all cases: growth of human tumour cells (NCI), 48 h
786-0 renal = test system: 786-0 renal
A498 renal = test system: A498 renal
A549 NSCLC = test system: A549 NSCLC
ACHN renal = test system: ACHN renal
BT-549 breast = test system: BT-549 breast
CAKI-1 renal = test system: CAKI-1 renal
CCRF-CEM leukemia = test system: CCRF-CEM leukemia
COLO 205 colon = test system: COLO 205 colon
DLD-1 colon = test system: DLD-1 colon
DMS 114 small cell lung = test system: DMS 114 small cell lung
DMS 273 small cell lung = test system: DMS 273 small cell lung
DU-145 prostate = test system: DU-145 prostate
EKVX NSCLC = test system: EKVX NSCLC
HCC-2998 colon = test system: HCC-2998 colon
HCT-116 colon = test system: HCT-116 colon
HCT-15 colon = test system: HCT-15 colon
HL-60(TB) leukemia = test system: HL-60(TB) leukemia
HOP-18 NSCLC = test system: HOP-18 NSCLC
HOP-62 NSCLC = test system: HOP-62 NSCLC
HOP-92 NSCLC = test system: HOP-92 NSCLC
HS 578T breast = test system: HS 578T breast
HT29 colon = test system: HT29 colon
IGROV1 ovarian = test system: IGROV1 ovarian
K-562 leukemia = test system: K-562 leukemia
KM12 colon = test system: KM12 colon
KM20L2 colon = test system: KM20L2 colon
LOX IMVI melanoma = test system: LOX IMVI melanoma
LXFL 529 NSCLC = test system: LXFL 529 NSCLC
M14 melanoma = test system: M14 melanoma
M19-MEL melanoma = test system: M19-MEL melanoma
MALME-3M melanoma = test system: MALME-3M melanoma
MCF7 breast = test system: MCF7 breast
MDA-MB-231 breast = test system: MDA-MB-231 breast
MDA-MB-435 = test system: MDA-MB-435
MDA-N = test system: MDA-N
MOLT-4 leukemia = test system: MOLT-4 leukemia
NCI-H226 lung = test system: NCI-H226 lung
NCI-H23 lung = test system: NCI-H23 lung
NCI-H460 lung = test system: NCI-H460 lung
NCI-H522 lung = test system: NCI-H522 lung
NCI/ADR-RES ovarian = test system: NCI/ADR-RES ovarian
OVCAR-3 ovarian = test system: OVCAR-3 ovarian
OVCAR-4 ovarian = test system: OVCAR-4 ovarian
OVCAR-5 ovarian = test system: OVCAR-5 ovarian
OVCAR-8 ovarian = test system: OVCAR-8 ovarian
PC-3 prostate = test system: PC-3 prostate
RPMI-8226 leukemia = test system: RPMI-8226 leukemia
RXF 393 renal = test system: RXF 393 renal
RXF-631 renal = test system: RXF-631 renal
SF-268 CNS = test system: SF-268 CNS
SF-295 CNS = test system: SF-295 CNS
SF-539 CNS = test system: SF-539 CNS
SK-MEL-2 melanoma = test system: SK-MEL-2 melanoma
SK-MEL-28 melanoma = test system: SK-MEL-28 melanoma
SK-MEL-5 melanoma = test system: SK-MEL-5 melanoma
SK-OV-3 ovarian = test system: SK-OV-3 ovarian
SN12C renal = test system: SN12C renal
SNB-19 CNS = test system: SNB-19 CNS
SNB-75 CNS = test system: SNB-75 CNS
SNB-78 CNS = test system: SNB-78 CNS
SR leukemia = test system: SR leukemia
SW-620 colon = test system: SW-620 colon
T-47D breast = test system: T-47D breast
TK-10 renal = test system: TK-10 renal
U251 CNS = test system: U251 CNS
UACC-257 melanoma = test system: UACC-257 melanoma
UACC-62 melanoma = test system: UACC-62 melanoma
UO-31 renal = test system: UO-31 renal
XF 498 CNS = test system: XF 498 CNS

Structure (SMILES): O=C1CCC(C(=O)O)C2=C1CCCC2 (centres undefined)
- TGI (786-0 renal): > 100 µM
- TGI (A498 renal): > 100 µM
- TGI (A549 NSCLC): > 100 µM
- TGI (ACHN renal): > 100 µM
- TGI (BT-549 breast): > 100 µM
- TGI (CAKI-1 renal): > 100 µM
- TGI (CCRF-CEM leukemia): > 100 µM
- TGI (COLO 205 colon): > 100 µM
- TGI (DLD-1 colon): > 100 µM
- TGI (DMS 114 small cell lung): > 100 µM
- TGI (DMS 273 small cell lung): > 100 µM
- TGI (DU-145 prostate): > 100 µM
- TGI (EKVX NSCLC): > 100 µM
- TGI (HCC-2998 colon): > 100 µM
- TGI (HCT-116 colon): > 100 µM
- TGI (HCT-15 colon): > 100 µM
- TGI (HL-60(TB) leukemia): > 100 µM
- TGI (HOP-18 NSCLC): > 100 µM
- TGI (HOP-62 NSCLC): > 100 µM
- TGI (HOP-92 NSCLC): > 100 µM
- TGI (HS 578T breast): > 100 µM
- TGI (HT29 colon): > 100 µM
- TGI (IGROV1 ovarian): > 100 µM
- TGI (K-562 leukemia): > 100 µM
- TGI (KM12 colon): > 100 µM
- TGI (KM20L2 colon): > 100 µM
- TGI (LOX IMVI melanoma): > 100 µM
- TGI (LXFL 529 NSCLC): > 100 µM
- TGI (M14 melanoma): > 100 µM
- TGI (M19-MEL melanoma): > 100 µM
- TGI (MALME-3M melanoma): > 100 µM
- TGI (MCF7 breast): > 100 µM
- TGI (MDA-MB-231 breast): > 100 µM
- TGI (MDA-MB-435): > 100 µM
- TGI (MDA-N): > 100 µM
- TGI (MOLT-4 leukemia): > 100 µM
- TGI (NCI-H226 lung): > 21.5 µM
- TGI (NCI-H23 lung): > 100 µM
- TGI (NCI-H460 lung): > 100 µM
- TGI (NCI-H522 lung): > 100 µM
- TGI (NCI/ADR-RES ovarian): > 100 µM
- TGI (OVCAR-3 ovarian): > 100 µM
- TGI (OVCAR-4 ovarian): > 100 µM
- TGI (OVCAR-5 ovarian): > 100 µM
- TGI (OVCAR-8 ovarian): > 100 µM
- TGI (PC-3 prostate): > 100 µM
- TGI (RPMI-8226 leukemia): > 100 µM
- TGI (RXF 393 renal): > 100 µM
- TGI (RXF-631 renal): > 100 µM
- TGI (SF-268 CNS): > 100 µM
- TGI (SF-295 CNS): > 100 µM
- TGI (SF-539 CNS): > 100 µM
- TGI (SK-MEL-2 melanoma): > 100 µM
- TGI (SK-MEL-28 melanoma): > 100 µM
- TGI (SK-MEL-5 melanoma): > 100 µM
- TGI (SK-OV-3 ovarian): > 100 µM
- TGI (SN12C renal): > 100 µM
- TGI (SNB-19 CNS): > 100 µM
- TGI (SNB-75 CNS): > 100 µM
- TGI (SNB-78 CNS): > 100 µM
- TGI (SR leukemia): > 100 µM
- TGI (SW-620 colon): > 100 µM
- TGI (T-47D breast): > 100 µM
- TGI (TK-10 renal): > 100 µM
- TGI (U251 CNS): > 29.8 µM
- TGI (UACC-257 melanoma): > 100 µM
- TGI (UACC-62 melanoma): > 100 µM
- TGI (UO-31 renal): > 100 µM
- TGI (XF 498 CNS): > 100 µM
